The text below walks through data of patent publication US12459951B2, “Compounds that interact with RAS superfamily proteins for treatment of cancers, inflammatory diseases, rasopathies, and fibrotic disease” (SHY Therapeutics, LLC, priority 2022, dated 2025).

Where two headings read alike, the source gives them in different places.

One assay relates to Erk1/2 phosphorylation. Kind of assay: Erk1/2 Phosphorylation Assay (western blot), Panc-1. The assay is classed as cell-based, human. The following applies: at 10 μM, * = activation. Summed up:
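Phospho-Erk1/2 (Thr202/Tyr204) was detected by western blot in lysates of Panc-1 cells (KRas G12D). These had 6 h, 37° C exposure to 10 μM compound or a dilution series for IC50, in 0.3% DMSO. Cells were either starved overnight in 0.5% FBS with a 15-min 1.5 ng/ml EGF pulse, or kept unstimulated in 10% FBS.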

The test system of assay [1] is MiaPaca-2 (expressing KRAS G12C mutant). Briefly: Proliferation Assay (Cell Viability Assay). The conditions noted are these: Homo sapiens, MIA PaCa-2. Format: cell-based. Summed up:
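After 2–4 days' exposure at 37 °C, 5% CO2 to a single 10 μM final concentration or a dilution series (IC50), percent proliferation inhibition was derived from CellTiter 96 Aqueous One viability readings. The medium contained 0.3% DMSO and 10% FBS. KRAS G12C MiaPaca-2 cells were plated at 2000–5000/well the day before.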

[2] abbreviates: read-out: Proliferation in MiaPaca-2: IC50.
Setting [3] is: Proliferation assay, MiaPaca-2, read-out: MiaPaca-2 IC50 (nM) Pancreatic.

Take `COC1CCCN(c2nc(-c3nccn3C)nn3cc(-c4ccn(C(C)C)n4)c(-c4ccccc4)c23)C1` (racemic) [Compound 21, rac 6-(1-Isopropyl-1H-pyrazol-3-yl)-4-(3-methoxypiperidin-1-yl)-2-(1-methyl-1H-imidazol-2-yl)-5-phenylpyrrolo[2,1-f][1,2,4]triazine]: the “% inh of Erk1/2 phosphorylation in Panc-1” value (from here on “% inh”) in the assay on Erk1/2 phosphorylation is reported as 0 (0% inhibition). Besides, in assay [1] (setting [2]), the IC50 was > 1000 nM.
Consider `CO[C@H]1CC[C@@H](Nc2nc(-c3nccn3C)nn3cc(-c4ccn(C(C)C)n4)c(C)c23)C1` (racemic) [Compound 1, rac 6-(1-Isopropyl-1H-pyrazol-3-yl)-N-((1R,3S)-3-methoxycyclopentyl)-5-methyl-2-(1-methyl-1H-imidazol-2-yl)pyrrolo[2,1-f][1,2,4]triazin-4-amine], for which the “% inh” value with Erk1/2 phosphorylation is given as 0 (0% inhibition). Besides, in assay [1] (setting [2]), the IC50 is > 1000 nM.
The like results for `COc1cccc(-c2cn3nc(-c4nccn4C)nc(N[C@@H]4CC[C@@H](OC)C4)c3c2-c2ccccc2)c1Cl.Cl` (racemic) [Compound 34, rac 6-(2-Chloro-3-methoxyphenyl)-N-((1R,3R)-3-methoxycyclopentyl)-2-(1-methyl-1H-imidazol-2-yl)-5-phenylpyrrolo[2,1-f][1,2,4]triazin-4-amine hydrochloride] were, in that order, “D (85-100% inhibition)” and 510 to 1000 nM.
For the molecule `Cc1c(-c2ccn(C(C)C)n2)cn2nc(-c3nccn3C)nc(Nc3cc4n(n3)CCO4)c12` [Compound 91, N-(6-(1-Isopropyl-1H-pyrazol-3-yl)-5-methyl-2-(1-methyl-1H-imidazol-2-yl)pyrrolo[2,1-f][1,2,4]triazin-4-yl)-2,3-dihydropyrazolo[5,1-b]oxazol-6-amine], in the assay on Erk1/2 phosphorylation, the “% inh” value is given as “D* (85-100% activation)”. The IC50 in assay [1] (setting [3]) was 10 to 50 nM; in assay [1] (setting [2]), < 150 nM.
In the case of `COc1cccc(Nc2nc(-c3nccn3C)nn3cc(-c4ccn(C(C)C)n4)c(C)c23)n1` [Compound 7, 6-(1-Isopropyl-1H-pyrazol-3-yl)-N-(6-methoxypyridin-2-yl)-5-methyl-2-(1-methyl-1H-imidazol-2-yl)pyrrolo[2,1-f][1,2,4]triazin-4-amine], the “% inh” value with Erk1/2 phosphorylation is listed as 0 (0% inhibition). For the same molecule, the IC50 in assay [1] (setting [2]) was > 1000 nM.
`CCc1nc(Nc2nc(-c3nccn3C)nn3cc(-c4ccn(C(C)C)n4)c(C)c23)nn1C` [Compound 76, N-(5-Ethyl-1-methyl-1H-1,2,4-triazol-3-yl)-6-(1-isopropyl-1H-pyrazol-3-yl)-5-methyl-2-(1-methyl-1H-imidazol-2-yl)pyrrolo[2,1-f][1,2,4]triazin-4-amine]: the “% inh” value in the assay with Erk1/2 phosphorylation was 0 (0% inhibition). In addition, the IC50 in assay [1] (setting [2]) is < 150 nM.
On to `Cc1c(-c2ccn(C(C)C)n2)cn2nc(-c3nccn3C)nc(Nc3cn(C(C)C)nn3)c12` [Compound 78, N-(1-Isopropyl-1H-1,2,3-triazol-4-yl)-6-(1-isopropyl-1H-pyrazol-3-yl)-5-methyl-2-(1-methyl-1H-imidazol-2-yl)pyrrolo[2,1-f][1,2,4]triazin-4-amine], for which the “% inh” value in the assay with Erk1/2 phosphorylation was “D* (85-100% activation)”. In addition, the IC50 in assay [1] (setting [2]) was in the range of 150 to 500 nM.
On to `COc1cnc(Nc2nc(-c3nccn3C)nn3cc(-c4ccn(C(C)C)n4)c(C)c23)cn1` [Compound 83, 6-(1-Isopropyl-1H-pyrazol-3-yl)-N-(5-methoxypyrazin-2-yl)-5-methyl-2-(1-methyl-1H-imidazol-2-yl)pyrrolo[2,1-f][1,2,4]triazin-4-amine], for which the “% inh” value in the assay with Erk1/2 phosphorylation is “D* (85-100% activation)”. Also, the IC50 in assay [1] (setting [2]) lay within 150 to 500 nM.
For `COCc1csc(Nc2nc(-c3nccn3C)nn3cc(-c4ccn(C(C)C)n4)c(C)c23)n1` [Compound 79, N-(6-(1-Isopropyl-1H-pyrazol-3-yl)-5-methyl-2-(1-methyl-1H-imidazol-2-yl)pyrrolo[2,1-f][1,2,4]triazin-4-yl)-4-(methoxymethyl)thiazol-2-amine], the “% inh” value in the assay on Erk1/2 phosphorylation is on record as “D* (85-100% activation)”. For the same molecule, in assay [1] (setting [2]), the IC50 is < 150 nM.
The like results for `COC[C@@H]1CC[C@@H]1CNc1nc(-c2nccn2C)nn2cc(-c3ccn(C(C)C)n3)c(C)c12` (racemic) [Compound 3, rac 6-(1-Isopropyl-1H-pyrazol-3-yl)-N-(((1S,2R)-2-(methoxymethyl)cyclobutyl)methyl)-5-methyl-2-(1-methyl-1H-imidazol-2-yl)pyrrolo[2,1-f][1,2,4]triazin-4-amine] were, in that order, “D (85-100% inhibition)” and > 1000 nM.
As to `COCC1CCN(c2nc(-c3nccn3C)nn3cc(-c4ccn(C(C)C)n4)c(C)c23)C1` (racemic) [Compound 2, rac 6-(1-Isopropyl-1H-pyrazol-3-yl)-4-(3-(methoxymethyl)pyrrolidin-1-yl)-5-methyl-2-(1-methyl-1H-imidazol-2-yl)pyrrolo[2,1-f][1,2,4]triazine], in the assay with Erk1/2 phosphorylation, the “% inh” value is recorded as “B (26-49% inhibition)”. Also, the IC50 in assay [1] (setting [2]) is > 1000 nM.
In the case of `Cn1ccnc1-c1nc(O)c2c(-c3ccccc3)ccn2n1` [Compound 39, 2-(1-Methyl-1H-imidazol-2-yl)-5-phenylpyrrolo[2,1-f][1,2,4]triazin-4-ol], the “% inh” value in the assay with Erk1/2 phosphorylation is listed as 0 (0% inhibition). Further, in assay [1] (setting [2]), the IC50 is > 1000 nM.
The like results for `COc1ncc(Nc2nc(-c3nccn3C)nn3cc(-c4ccn(C(C)C)n4)c(C)c23)cn1` [Compound 80, 6-(1-Isopropyl-1H-pyrazol-3-yl)-N-(2-methoxypyrimidin-5-yl)-5-methyl-2-(1-methyl-1H-imidazol-2-yl)pyrrolo[2,1-f][1,2,4]triazin-4-amine] were, in that order, “D* (85-100% activation)” and > 1000 nM.
Take `COc1cccnc1Nc1nc(-c2nccn2C)nn2cc(-c3ccn(C(C)C)n3)c(C)c12` [Compound 89, 6-(1-Isopropyl-1H-pyrazol-3-yl)-N-(3-methoxypyridin-2-yl)-5-methyl-2-(1-methyl-1H-imidazol-2-yl)pyrrolo[2,1-f][1,2,4]triazin-4-amine]: in the assay on Erk1/2 phosphorylation, the “% inh” value is “D* (85-100% activation)”. In addition, the IC50 in assay [1] (setting [2]) is < 150 nM.
Regarding `COC1CCCN(c2nc(-c3nccn3C)nn3cc(-c4ccn(C(C)C)n4)c(C)c23)C1` (racemic) [Compound 4, rac 6-(1-Isopropyl-1H-pyrazol-3-yl)-5-methyl-2-(1-methyl-1H-imidazol-2-yl)-4-(3-(oxo-γ6-methyl)piperidin-1-yl)pyrrolo[2,1-f][1,2,4]triazine], the “% inh” value in the assay with Erk1/2 phosphorylation is listed as “D (85-100% inhibition)”. Moreover, in assay [1] (setting [2]), the IC50 was > 1000 nM.
Turning to `COc1nccc(Nc2nc(-c3nccn3C)nn3cc(-c4ccn(C(C)C)n4)c(C)c23)n1` [Compound 86, 6-(1-Isopropyl-1H-pyrazol-3-yl)-N-(2-methoxypyrimidin-4-yl)-5-methyl-2-(1-methyl-1H-imidazol-2-yl)pyrrolo[2,1-f][1,2,4]triazin-4-amine], the “% inh” value in the assay on Erk1/2 phosphorylation is “D* (85-100% activation)”. For the same molecule, the IC50 in assay [1] (setting [2]) lay in the range of 150 to 500 nM.
For `COc1ncccc1Nc1nc(-c2nccn2C)nn2cc(-c3ccn(C(C)C)n3)c(C)c12` [Compound 85, 6-(1-Isopropyl-1H-pyrazol-3-yl)-N-(2-methoxypyridin-3-yl)-5-methyl-2-(1-methyl-1H-imidazol-2-yl)pyrrolo[2,1-f][1,2,4]triazin-4-amine] the same measures were “C (50-84% inhibition)” and > 1000 nM.
Regarding `COCCO[C@H]1C[C@H](Nc2nc(-c3nccn3C)nn3cc(-c4ccn(C(C)C)n4)c(C)c23)C1` [Compound 92, 6-(1-Isopropyl-1H-pyrazol-3-yl)-N-((1r,3r)-3-(2-methoxyethoxy)cyclobutyl)-5-methyl-2-(1-methyl-1H-imidazol-2-yl)pyrrolo[2,1-f][1,2,4]triazin-4-amine], the “% inh” value in the assay with Erk1/2 phosphorylation is recorded as “A* (1-25% activation)”. Further, in assay [1] (setting [2]), the IC50 was > 1000 nM.
On to `COc1ncncc1Nc1nc(-c2nccn2C)nn2cc(-c3ccn(C(C)C)n3)c(C)c12` [Compound 88, 6-(1-Isopropyl-1H-pyrazol-3-yl)-N-(4-methoxypyrimidin-5-yl)-5-methyl-2-(1-methyl-1H-imidazol-2-yl)pyrrolo[2,1-f][1,2,4]triazin-4-amine], for which the “% inh” value in the assay on Erk1/2 phosphorylation is 0 (0% inhibition). Also, the IC50 in assay [1] (setting [2]) was > 1000 nM.
For `Cc1c(-c2ccn(C(C)C)n2)cn2nc(-c3nccn3C)nc(Nc3ncc(C4CC4)o3)c12` [Compound 90, 5-Cyclopropyl-N-(6-(1-isopropyl-1H-pyrazol-3-yl)-5-methyl-2-(1-methyl-1H-imidazol-2-yl)pyrrolo[2,1-f][1,2,4]triazin-4-yl)oxazol-2-amine] the same measures were “D* (85-100% activation)” and > 1000 nM.
Consider `Cc1c(-c2ccn(C(C)C)n2)cn2nc(-c3nccn3C)nc(Nc3ccn(C4CC4)n3)c12` [Compound 84, N-(1-Cyclopropyl-1H-pyrazol-3-yl)-6-(1-isopropyl-1H-pyrazol-3-yl)-5-methyl-2-(1-methyl-1H-imidazol-2-yl)pyrrolo[2,1-f][1,2,4]triazin-4-amine], for which, in the assay with Erk1/2 phosphorylation, the “% inh” value was “D* (85-100% activation)”. Further, the IC50 in assay [1] (setting [3]) is 1 to 10 nM; in assay [1] (setting [2]) it was < 150 nM.
Take `COCCNc1nc(-c2nccn2C)nn2cc(-c3ccn(C(C)C)n3)c(C)c12` [Compound 5, 6-(1-Isopropyl-1H-pyrazol-3-yl)-N-(2-methoxyethyl)-5-methyl-2-(1-methyl-1H-imidazol-2-yl)pyrrolo[2,1-f][1,2,4]triazin-4-amine]: the “% inh” value in the assay on Erk1/2 phosphorylation is on record as 0 (0% inhibition). In addition, the IC50 in assay [1] (setting [2]) is > 1000 nM.
